Test [1] has as its system N-acyl-L-proline acylase formation in Comamonas testosteroni DSM 5416. The test can be described thus: Acylase formation: specific activity of N-acyl-L-proline acylase in crude extract. Type of test: cell-based. As to the method:
After 24 to 48 hours, the cell-containing nutrient medium was centrifuged (15 min., 4,500 g in a cooling centrifuge), the cells were washed twice with 0.9% (w/v) NaCl solution and resuspended in 10 ml 0.1M tris-HCl buffer, pH 7.0.
The microorganisms of this suspension were macerated by ultrasound treatment (Sonifier-Cell Disrupter B-30 of the firm Branson Sonic Power Co., Danbury, Conn., USA) (2 minutes pulsating, corresponding to 1 minute of pure ultrasonic radiation. The cell fragments and non-macerated cells were centrifuged in a cooled centrifuge 30 minutes at 40,000 g and 5° C. The clear supernatant (=crude extract) was used in an enzyme test.
The reaction was started by adding crude extract and the reaction batches customarily incubated for 10 minutes at 30° C. The incubation time and the amount of crude extract were selected so that the linearity range of the enzymatic reaction and of the subsequent proline detection were not exceeded.
The enzymatic reaction was interrupted by pipetting 50 μl of the enzyme sample into 1.25 ml 100% acetic acid. Subsequently, 0.45 ml 0.1M tris-HCl buffer pH 7.0 and 1.25 ml ninhydrin reagent (3 g ninhydrin dissolved by heating in a mixture of 60 ml 100% acetic acid and 40 ml 6M phosphoric acid) were added. The ninhydrin reagent was freshly prepared daily. The test tubes were loosely closed with screw-on caps, incubated 30 minutes at 100° C. and subsequently cooled down in an ice bath.
The L-proline, liberated by the enzymatic hydrolysis, forms a red dye with ninhydrin at 100° C. The absorption of the red dye was measured in a spectrophotometer at 480 nm relative to a control batch without crude extract (=substrate blank). The concentration of the L-proline produced was determined using a straight calibration line with L-proline in a range of 5 to 100 nmoles per 50 μl specimen. The enzyme activity was indicated in international units; thus, one unit (U) corresponded to an amount of 1 μmole L-proline produced per minute.
The protein determination was carried out with a protein-determination kit of the firm Pierce Chemical Co., Rockford, Ill., USA, according to Bradford, Anal. Biochem. 72, pp. 248-254 (1976).
(§1) The carbon source of the culture medium with a concentration of 4 g/l was varied and the influence on growth and acylase formation determined.
(§2) The concentration of N-acetyl-L-proline was varied in a range of 1 g/l-5 g/l in steps of 1 g/l in the culture medium as described in Example 1.
(§3) The concentration of (NH4)2 SO4 was varied in a range of 1 g/l-5 g/l in steps of 1 g/l in the culture medium as described in Example 1.
(§4) The concentration of yeast extract was varied in a range of 1 g/l-5 g/l in steps of 1 g/l in the culture medium as described in Example 1.
(§5) The N-acetyl-L-proline concentration was reduced to 0.2 to 1.0 g/l in the culture medium as described in Example 1 and 4 g/l Na acetate were additionally added.
(§6) The method described above under f) was followed. However, the inductor, N-acetyl-L-proline, was not added to the nutrient medium until the late exponential growth phase after an incubation time of 12 hours.
(§7) The method described above under f) was followed. In addition to N-acetyl-L-proline, various N-acetyl- and N-chloroacetyl amino acids were added to the nutrient medium in a concentration of 1 g/l.

Test [2] deals with Comamonas testosteroni DSM 5416. The experiment in a line: Growth of the strain in culture medium (OD600). It counts as cell-based. As to the method:
Strains which appeared uniform according to the colony morphology and the microscopic image were then cultivated in 100 ml liquid medium (500 ml Erlenmeyer flask with top and 4 lateral baffles) at 30° C. on a rotary agitator machine at 200 rpms. The culture medium had the following composition: […]
as §1, §2, §3, §4, §5, §6, §7

The next test has as its system N-acyl-L-proline acylase. The test can be described thus: Substrate specificity: hydrolysis of N-acyl amino acids and proline derivatives. It counts as biochemical, Comamonas testosteroni DSM 5416. As to conditions: for Rel. activity (%): 20 mM substrate 1.0 ml in 2.0 ml batch, amino-acid analyzer; for Rel. activity (%) / Relative Activity (%): 30° C., pH 7.0, N-acetyl-L-proline = 100%; for Relative Activity (%): proline derivatives. How it is done: The activity of acylase was determined with various N-acetyl-L-amino acids and N-chloroacetyl-L-amino acids in a reaction batch with the following composition:
The reaction temperature was 30° C. and the incubation time 15 minutes to 24 hours. 0.2 ml samples of the reaction batch in each instance were mixed at different times with 0.2 ml 10% (w/v) trichloroacetic acid and the denatured protein centrifuged off for 10 minutes at 11,000 rpms in a table centrifuge. The supernatant was diluted with a 0.1M Na citrate buffer pH 2.2 with 25% (v/v) 2.2-thiodiethanol and 0.1% (v/v) phenol 1:5 and 1:50 respectively. The amino acids released were quantitatively detected by an amino-acid analyzer LC 5001 of the firm Biotronic, Maintal, Federal Republic of Germany. In Table 16, the substrates marked with * and the corresponding products were quantified by means of HPLC.
The activity of the acylase was determined with various proline derivatives as under a).

Where [3] appears, read: (NH4)2 SO4 1 g/l in culture medium, 23 hours.
Where [4] appears, read: (NH4)2 SO4 2 g/l in culture medium, 23 hours.
Where [5] appears, read: (NH4)2 SO4 3 g/l in culture medium, 23 hours.
Where [6] appears, read: (NH4)2 SO4 4 g/l in culture medium, 23 hours.
Where [7] appears, read: (NH4)2 SO4 5 g/l in culture medium, 23 hours.
The mark [8] stands for this setting: carbon source 4 g/l in culture medium.
Setting [9] is: inductor 1 g/l + 4 g/l Na acetate, 24 hours.

Entries after “also recorded” stand apart in the source; their conditions may differ. Where a SMILES comes first, the peptide text is derived from it. The star is where a group is joined. Cbz = O=C(OCc1ccccc1)*

Consider `N.N.O=S(=O)(O)O` [(NH4)2 SO4], for which the “Optimum concentration in the culture medium for acylase formation” value in test [1] stood at 2 g/L. Besides, the “Spec. activity (U/mg)” value came to 1.71 U/mg in test [1] (setting [3]); 1.91 U/mg in test [1] (setting [4]); 1.53 U/mg in test [1] (setting [5]); 1.59 U/mg in test [1] (setting [6]); 1.32 U/mg in test [1] (setting [7]). Moreover, the “Growth (OD600)” value in test [2] (setting [3]) amounted to 5.24 OD600; in test [2] (setting [4]) it was 5.67 OD600; in test [2] (setting [5]) it was 5.47 OD600; in test [2] (setting [6]) it was 5.44 OD600; in test [2] (setting [7]) it was 5.47 OD600.
Regarding `CC(=O)O` [Acetate], in test [1], the “Acylase formation / induction (in words)” value is “not repressed”. In addition, in test [1] (setting [8]), the “Spec. activity (U/mg)” value is given as below 0.01 U/mg. Besides, the “Growth (OD600)” value in test [2] (setting [8]) is 2.3 OD600.
Regarding `CCCC(=O)O` [Butyrate], the “Spec. activity (U/mg)” value in test [1] (setting [8]) is below 0.01 U/mg. Besides, the “Growth (OD600)” value in test [2] (setting [8]) stood at 1.8 OD600.
For the compound `CC(C)C[C@H](NC(=O)CCl)C(=O)O` [ClAc--L--Leu], the “Spec. activity (U/mg)” value in test [1] (setting [9]) was below 0.01 U/mg. For the same compound, in the test with N-acyl-L-proline acylase, the “Rel. activity (%)” value is listed as 1.9%. Further, in test [2] (setting [9]), the “Growth (OD600)” value is reported as 2.65 OD600.
The like results for `O=C(CCl)N[C@@H](Cc1ccccc1)C(=O)O` [ClAc--L--Phe] were, in that order, below 0.01 U/mg, 1.0% and 2.89 OD600.
On the same counts, the results for `O=C(CCl)N[C@@H](Cc1ccc(O)cc1)C(=O)O` [ClAc--L--Tyr] are below 0.01 U/mg, 1.0% and 2.76 OD600.
In the case of `OCC(O)CO` [Glycerol], the “Spec. activity (U/mg)” value in test [1] (setting [8]) is listed as below 0.01 U/mg. Moreover, the “Growth (OD600)” value in test [2] (setting [8]) was found to be 1.1 OD600.
On to `N[C@@H](CC(=O)O)C(=O)O` [L-aspartate], for which, in test [1] (setting [8]), the “Spec. activity (U/mg)” value is below 0.01 U/mg. Further, the “Growth (OD600)” value in test [2] (setting [8]) is 2.0 OD600.
On the same counts, the results for `CC(C)C[C@H](N)C(=O)O` [L-leucine] are below 0.01 U/mg and 2.6 OD600.
As to `O=C(O)[C@@H]1CCCN1` [L-proline], the “Spec. activity (U/mg)” value in test [1] (setting [8]) is recorded as below 0.01 U/mg. Moreover, the “Growth (OD600)” value in test [2] (setting [8]) came out at 3.9 OD600.
For `CC(O)C(=O)O` (stereo not shown) [Lactate], in test [1] (setting [8]), the “Spec. activity (U/mg)” value is given as below 0.01 U/mg. Further, the “Growth (OD600)” value in test [2] (setting [8]) amounted to 3.0 OD600.
Turning to `N=C(N)NCCC[C@H](N)C(=O)O` [Larginine], the “Growth (OD600)” value in test [2] (setting [8]) is on record as “No growth”.
Same read-out and setting: as for `N[C@@H](Cc1c[nH]cn1)C(=O)O` [Lhistidine], the entry is “No growth”; as for `N[C@@H](CO)C(=O)O` [Lserin], “No growth”.
Regarding `N[C@@H](Cc1c[nH]c2ccccc12)C(=O)O` [Ltryptophane], the “Growth (OD600)” value in test [2] (setting [8]) is reported as “No growth”.
For `O=C(O)CC(O)C(=O)O` (stereo not shown) [Malate], the “Spec. activity (U/mg)” value in test [1] (setting [8]) is recorded as below 0.01 U/mg. Besides, in test [2] (setting [8]), the “Growth (OD600)” value turned out to be 3.4 OD600.
As for `CC(=O)N[C@@H](C)C(=O)O` [N-acetyl-L-alanine], the “Spec. activity (U/mg)” value in test [1] (setting [9]) is below 0.01 U/mg. In the test on N-acyl-L-proline acylase, the “Hydrolysis by the acylase (in words)” value is “hydrolyzes; also recorded: reacted at a distinctly lower speed” and the “Rel. activity (%)” value worked out at 9.3%. In addition, the “Growth (OD600)” value in test [2] (setting [9]) is 2.28 OD600.
`CSCC[C@H](NC(=O)CCl)C(=O)O` [N-chloroacetyl-L-methionine]: the “Spec. activity (U/mg)” value in test [1] (setting [9]) is given as below 0.01 U/mg. Besides, in the test with N-acyl-L-proline acylase, the “Hydrolysis by the acylase (in words)” value is “hydrolyzes; also recorded: reacted at a distinctly lower speed” and the “Rel. activity (%)” value is 17.1%. In test [2] (setting [9]), the “Growth (OD600)” value was 2.19 OD600.
The like results for `CC(C)[C@H](NC(=O)CCl)C(=O)O` [N-chloroacetyl-L-valine] were, in that order, below 0.01 U/mg, “hydrolyzes; also recorded: reacted at a distinctly lower speed”, 14.1% and 2.50 OD600.
For the compound `CCC(=O)N1CCC[C@H]1C(=O)O` [N-propionyl-L-proline], in the test on N-acyl-L-proline acylase, the “Hydrolysis by the acylase (in words)” value was “hydrolyzes” and the “Relative Activity (%)” value is listed as 29%.
The like results for `CCCCC(=O)N1CCC[C@H]1C(=O)O` [N-valeryl-L-proline] were, in that order, “hydrolyzes” and 15%.
As to `CCC(=O)O` [Propionate], in test [1] (setting [8]), the “Spec. activity (U/mg)” value is recorded as below 0.01 U/mg. Also, the “Growth (OD600)” value in test [2] (setting [8]) came to 1.9 OD600.
The like results for `CC(=O)C(=O)O` [Pyruvate] were, in that order, below 0.01 U/mg and 2.4 OD600.
With `O=C(O)[C@H]1CCCN1C(=O)OCc1ccccc1` [Z--D--Pro--OH], the “Relative Activity (%)” value in the test on N-acyl-L-proline acylase stood at 0%.
`C[C@H](NC(=O)[C@@H]1CCCN1C(=O)OCc1ccccc1)C(=O)O` [Z--L--Pro--L--Ala--OH] (Cbz-Pro-Ala-OH): in the test on N-acyl-L-proline acylase, the “Relative Activity (%)” value is listed as 0%.
The same measure, in the same setting: as for `NC(=O)[C@@H]1CCCN1C(=O)OCc1ccccc1` [Z--L--Pro--NH2], the figure is 0%; as for `O=C(O)[C@@H]1CCCN1C(=O)OCc1ccccc1` [Z--L--Pro--OH], 0%.
In the case of `O=C(O)CC(O)(CC(=O)O)C(=O)O` [citrate], in test [2] (setting [8]), the “Growth (OD600)” value was “No growth”.
Same read-out and setting: to `O=C(CO)[C@@H](O)[C@H](O)[C@H](O)CO` [fructose] belongs “No growth”; to `O=C[C@H](O)[C@@H](O)[C@H](O)[C@H](O)CO` [glucose], “No growth”.
Take `NCC(=O)N1CCC[C@H]1C(=O)O` [glycyl-L-proline] (H-Gly-Pro-OH): in the test on N-acyl-L-proline acylase, the “Hydrolysis by the acylase (in words)” value is “hydrolyzes” and the “Relative Activity (%)” value was 4%.
Take `OC[C@H]1O[C@@H](O[C@H]2[C@H](O)[C@@H](O)C(O)O[C@@H]2CO)[C@H](O)[C@@H](O)[C@H]1O` (stereo partly shown) [lactose]: in test [2] (setting [8]), the “Growth (OD600)” value was “No growth”.
Same read-out and setting: to `OC[C@H]1O[C@H](O[C@H]2[C@H](O)[C@@H](O)[C@H](O)O[C@@H]2CO)[C@H](O)[C@@H](O)[C@@H]1O` [maltose] belongs “No growth”; to `O=C[C@@H](O)[C@@H](O)[C@H](O)[C@H](O)CO` [mannose], “No growth”; to `OC[C@H]1O[C@@](CO)(O[C@H]2O[C@H](CO)[C@@H](O)[C@H](O)[C@H]2O)[C@@H](O)[C@@H]1O` [saccharose], “No growth”.
Still for that read-out and setting: to `O=C[C@H](O)[C@@H](O)[C@H](O)CO` [xylose] belongs “No growth”; to phenylacetate, “No growth”.

Source of the values: patent US5219741A, “Method of making L-proline using an N-acyl-L-protine acylase” (priority 1990, dated 1993).
